Experimental data: patent US8580825B2, “Oxadiazole inhibitors of leukotriene production” (Boehringer Ingelheim International GmbH, priority 2010, dated 2013)
pIC50: −log10 of the molar value.

Test system: synthesis of LTB4 in human whole blood
Experiment: human whole blood LTB4 production inhibition assay
Type: cell-based
Settings: calcimycin stimulated, read-out: hWB LTB4 IC50
Experimental: Compounds are additionally tested in a human whole blood assay to determine their ability to inhibit the synthesis of LTB4 in a cellular system. Compounds are combined with heparinized human whole blood and incubated for 15 minutes at 37° C. Calcimycin (20 μM final, prepared in phosphate-buffered saline, pH 7.4) is then added and the mixture is incubated for another 30 minutes at 37° C. The samples are centrifuged for 5 min at low speed (1500×g) and the plasma layer is removed. Plasma LTB4 concentrations are then measured using an antibody-based homogenous time-resolved fluorescence method (CisBio, Bedford, Mass.).

Structure (SMILES) | pIC50
CC(C)(O)Cn1cc(-c2nc(C(C)(c3ccc(-c4cnc(N)nc4)nc3)C3CC3)no2)cn1 (stereo not drawn) [Example 66, 1-[4-(3-{1-[6-(2-aminopyrimidin-5-yl)pyridin-3-yl]-1-cyclopropylethyl}-1,2,4-oxadiazol-5-yl)-1H-pyrazol-1-yl]-2-methylpropan-2-ol] | 7.28
CC(C)(O)Cn1cc(-c2nc([C@@](C)(c3ccc(-c4cnc(N)nc4)nc3)C3CC3)no2)cn1 [Example 81, 1-[4-(3-{(1R)-1-[6-(2-aminopyrimidin-5-yl)pyridin-3-yl]-1-cyclopropylethyl}-1,2,4-oxadiazol-5-yl)-1H-pyrazol-1-yl]-2-methylpropan-2-ol] | 7.39
CC(C)(O)Cn1cc(-c2nc([C@](C)(c3ccc(-c4cnc(N)nc4)nc3)C3CC3)no2)cn1 [Example 82, 1-[4-(3-{(1S)-1-[6-(2-aminopyrimidin-5-yl)pyridin-3-yl]-1-cyclopropylethyl}-1,2,4-oxadiazol-5-yl)-1H-pyrazol-1-yl]-2-methylpropan-2-ol] | 5.92
CC(C)(O)Cn1cc(-c2nc([C@@](C)(c3ccc(-c4cnc(N)c(C#N)c4)nc3)C3CC3)no2)cn1 [Example 162, 6′-Amino-5-((R)-1-cyclopropyl-1-{5-[1-(2-hydroxy-2-methyl-propyl)-1H-pyrazol-4-yl]-[1,2,4]oxadiazol-3-yl}-ethyl)-[2,3′]bipyridinyl-5′-carbonitrile] | 6.50
CC(C)(O)Cn1cc(-c2nc([C@@](C)(c3ccc(-c4cnc5c(c4)OCCN5)nc3)C3CC3)no2)cn1 [Example 167, 1-[4-(3-{(R)-1-Cyclopropyl-1-[6-(3,4-dihydro-2H-pyrido[3,2-b][1,4]oxazin-7-yl)-pyridin-3-yl]-ethyl}-[1,2,4]oxadiazol-5-yl)-pyrazol-1-yl]-2-methyl-propan-2-ol] | 6.77
CC(C)(O)Cn1cc(-c2nc([C@@](C)(c3ccc(-c4cnc5[nH]ccc5n4)nc3)C3CC3)no2)cn1 [Example 168, 1-[4-(3-{(R)-1-Cyclopropyl-1-[6-(5H-pyrrolo[2,3-b]pyrazin-2-yl)-pyridin-3-yl]-ethyl}-[1,2,4]oxadiazol-5-yl)-pyrazol-1-yl]-2-methyl-propan-2-ol] | 7.20
CNc1ncc(-c2ccc([C@](C)(c3noc(-c4cnn(C5CCOCC5)c4)n3)C3CC3)cn2)cn1 [Example 169, {5-[5-((R)-1-Cyclopropyl-1-{5-[1-(tetrahydro-pyran-4-yl)-1H-pyrazol-4-yl]-[1,2,4]oxadiazol-3-yl}-ethyl)-pyridin-2-yl]-pyrimidin-2-yl}-methyl-amine] | 6.98
CNc1cnc(-c2ccc([C@](C)(c3noc(-c4cnn(C)c4)n3)C3CC3)cn2)cn1 [Example 170, [5-(5-{(R)-1-Cyclopropyl-1-[5-(1-methyl-1H-pyrazol-4-yl)-[1,2,4]oxadiazol-3-yl]-ethyl}-pyridin-2-yl)-pyrazin-2-yl]-methyl-amine] | 6.95
C[C@@](c1ccc(-c2cnc(N)nc2)nc1)(c1noc(-c2cnn(C3CCOCC3)c2)n1)C1CC1 [Example 171, 5-[5-((R)-1-Cyclopropyl-1-{5-[1-(tetrahydro-pyran-4-yl)-1H-pyrazol-4-yl]-[1,2,4]oxadiazol-3-yl}ethyl)-pyridin-2-yl]-pyrimidin-2-ylamine] | 6.92
CNc1ncc(-c2ccc([C@](C)(c3noc(-c4cnn(C)c4)n3)C3CC3)cn2)cn1 [Example 172, [5-(5-{(R)-1-Cyclopropyl-1-[5-(1-methyl-1H-pyrazol-4-yl)-[1,2,4]oxadiazol-3-yl]ethyl}-pyridin-2-yl)-pyrimidin-2-yl]-methyl-amine] | 6.98
CNc1cnc(-c2ccc([C@](C)(c3noc(-c4cnn(C5CCOCC5)c4)n3)C3CC3)cn2)cn1 [Example 173, {5-[5-((R)-1-Cyclopropyl-1-{5-[1-(tetrahydro-pyran-4-yl)-1H-pyrazol-4-yl]-[1,2,4]oxadiazol-3-yl}-ethyl)-pyridin-2-yl]-pyrazin-2-yl}-methyl-amine] | 6.66
C[C@@](c1ccc(-c2cnc(N)cn2)nc1)(c1noc(-c2cnn(C3CCOCC3)c2)n1)C1CC1 [Example 174] | 7.28
